Literature values in patent publication EP4364951A1, “OVERCOAT INK AND INK SET CONTAINING SAME” (DNP Fine Chemicals Co., Ltd., priority 2021, dated 2023).

Details: water-octanol, common logarithm

Partition coefficient | SMILES
3-Methoxy -1-butanol (0.070) | COC(C)CCO (stereo not shown) [3-Methoxy-1-butanol]
1.2-Pentanediol (0.011) | CCCC(O)CO (stereo not shown) [1.2-Pentanediol]
3- M ethyl- 1,3- butanediol (-0.329) | CC(C)(O)CCO [3-M ethyl-1,3-butanediol]

More lines, now with the values behind:

SMILES | Partition coefficient
CCOCCOCCO [Diethylene glycol monoethyl ether] | Diethylene glycol monoethyl ether (-0.421)
CCC(O)CO (stereo not shown) [1,2-Butanediol] | 1,2-Butanediol (-0.499)
CC(O)CO (stereo not shown) [1,2-Propanediol] | 1,2-Propanediol (-1.008)
OCCCO [1,3-Propanediol] | 1,3-Propanediol (-1.093)
